US11980594B2, “Composition and method for treating a drug-resistant cancer” (NOVELWISE PHARMACEUTICAL CORPORATION, priority 2021, dated 2024)
“And” between values parts separate entries of the source, which are not always exact repeats. Equal values may be shown once.

How the values were obtained:
β-catenin = test: Western blot of β-catenin in GBM-R cells; type: cell-based, human; conditions: U87R and A172R cells; 10 μM BMX with or without 50 μM TMZ; 48 hrs; FIG. 3A
Procedure: The cells were collected and lysed in RIPA lysis buffer (EMD Millipore Billerica, Mass., USA, 10×RIPA buffer) containing a protease inhibitor. Protein concentration was determined using a protein assay kit (Bio-Rad Laboratories, Hercules, Calif., USA). The SDS loading buffer was mixed with the protein samples. Proteins (20 μg/lane) were separated using 8%-12% SDS-PAGE and transferred to a PVDF membrane, which was blocked with 5% bovine serum albumin at room temperature for 1 hr in tris-buffered saline (TBS)-Tween 20 (0.5%; TBS-T), incubated with primary antibodies overnight at […], and then incubated with horseradish peroxidase (HRP)-conjugated secondary antibodies at room temperature for 1 hr. After washing thoroughly with TBS-T, the HRP signals were detected with a chemical HRP substrate. Signal of each target protein was visualized by incubation with an enhanced chemiluminescent reagent and exposure to X-ray film.

P62 and LC3-II = test: Western blot of autophagy markers in CRC cells; type: cell-based, human; conditions: HT29, HCT116 and RKO cells; BMX (5 and 10 μM) with or without 50 μM TMZ; FIG. 18A
Procedure: Western blot analysis was used to examine the indicated protein expression levels under various concentrations of BMX (0-10 μM), and SAHA, VPA or PCI-34051 in the presence or absence of TMZ (50 μM) or OXP (5 μM) of the tested cell lines. SDS-PAGE and Western blot analysis was performed on lysates prepared as outlined previously. The specific primary antibodies against acetyl-histone H3 (Lys9/Lys14), acetyl-histone H4 (Lys8), P53, acetyl-p53 (Lys382), phospho-p53 (Ser15), P21, P16, MGMT, phosphor-H2AX (S139), E2F1, E2F3, Cleaved Caspase-3, Cleaved Caspase-8, Cleaved Caspase-7, Cleaved Caspase-9, PARP, Bax, Bcl-2, Bid, Bim, Bak, Puma, β-catenin, phospho-β-catenin(Ser/33/37/41), GSK3β, phospho-GSK3β (Ser 9), c-Myc, Cyclin D1, P62, LC3B, CD133, CD44, SOX-2 and HDAC8 were used for detection, and GAPDH, α-tubulin or β-actin was used as the internal control. After incubation with the primary antibodies, and then incubated with horseradish peroxidase (HRP)-conjugated secondary antibodies, the HRP signals were detected with a chemical HRP substrate. Signal of each target protein was visualized by incubation with an enhanced chemiluminescent reagent and exposure to X-ray film.

HDAC8 = HDAC8 mRNA (qRT-PCR) and protein (Western blot) expression in GBM and GBM-R cell lines; type: cell-based, human; conditions: four cell lines (U87MG, U87MG-R, A172, A172-R); BMX 0-10 μM; FIGS. 9A and 9B
Procedure: The ABI Prism® 7700 Sequence Detection System (Applied Biosystems, Foster City, Calif., USA) was used for quantitative analysis of mRNA expression. The cells (2×10^5) were seeded in 6-well plates, and total RNA was extracted using Tissue Total RNA Mini Kit (Geneaid, Taipei, Taiwan). A 10-ng sample of total RNA was transcribed into cDNA by using a High-Capacity cDNA Reverse Transcription Kit (Applied Biosystems). Gene expression was quantified using Fast SYBR Green Master Mix (Applied Biosystems) following the procedures provided by the manufacturer, with 18s as the inner reference. All procedures were performed according to the manufacturer's protocols. The thermocycling conditions were as follows: 50° C. for 2 min, 95° C. for 10 min, and 40 cycles of 95° C. for 15 s and 60° C. for […]. Each sample was analyzed in triplicate. The threshold cycle (Ct) values were calculated using the StepOnePlus (Applied Biosystems) software. The relative expression of each mRNA was calculated using the 2-(ΔCt) method. […]
The cells were collected and lysed in RIPA lysis buffer (EMD Millipore Billerica, Mass., USA, 10×RIPA buffer) containing a protease inhibitor. Protein concentration was determined using a protein assay kit (Bio-Rad Laboratories, Hercules, Calif., USA). […] After washing thoroughly with TBS-T, the HRP signals were detected with a chemical HRP substrate. […]

[1] = test system: GBM-R cells (U87MG-R and A172-R); test: GBM-R cell viability time course (FIG. 2F); type: cell-based, human; conditions: BMX 10 μM alone, FIG. 2F (24, 48, and 72 hrs)
Procedure: (A) Chemical structure of BMX. (B) Cell viability of GBM and GBM-R cell lines after treatment with 0.5, 10, 15, 30, or 50 μM BMX. (C) Cell viability of GBM and GBM-R cell lines after treatment with 0.25, 50, 100, 200, 400, or 800 μM TMZ. (D) GBM and GBM-R cell viability after treatment with 10 μM BMX with or without TMZ at various concentrations (0.25, 50, 100, 200, 400, or 800 μM) for 24 hrs. (E) GBM and GBM-R cell viability after treatment with 50 μM TMZ with or without BMX at various concentrations (0.5, 10, 15, 30, or 50 μM) for 24 hrs. (F) GBM-R cell viability after treatment with 50 μM TMZ with or without 10 μM BMX for 24, 48, and 72 hrs. (G) Colony formation assay of GBM and GBM-R cell lines with BMX (0, 5, or 10 μM) with or without TMZ (50 μM) for 14 days. Data are represented as means±SEM from three experiments. *p<0.05 vs. control (A172 and U87MG); #p<0.05 vs. (A172-R and U87MG-R).
We plated 3000 GBM cells per well in 96-well plates and allowed them to adhere overnight. To validate cell line responsiveness to BMX and TMZ monotherapy, the cells were treated with different doses of BMX or TMZ for 24, 48, and 72 hrs. […] Following treatment, the absorption value was measured using a CCK8 kit (Targetmol, Shanghai, China) at the indicated time points. […]

RKO cells = test: Clonogenic (colony formation) assay, RKO; type: cell-based; conditions: Homo sapiens, 336 h, 14 days, read-out: IC50 values of TMZ, clonogenic assay
Procedure: (§1) For the anchorage-dependent growth assay, 1000 cells were resuspended in the medium and seeded in 6-well plates. […] After 14 days, the media were removed and the cells were washed and fixed with 4% paraformaldehyde for 30 min, and stained with 0.1% crystal violet for 20 min at 25° C. The intensity of crystal violet was quantified by the absorbance of 570 nm after dissolving the stained cells with dimethyl sulfoxide (DMSO). The results are expressed as the average colony±SE from three independent experiments.

HT29 cells = test: Clonogenic (colony formation) assay, HT29; type: cell-based; conditions: Homo sapiens, HT-29, 336 h, 14 days, read-out: IC50 values of TMZ, clonogenic assay
Procedure: as §1

| SMILES | protein levels of β-catenin (β-catenin) | expression of P62 and LC3-II (P62 and LC3-II) | HDAC8 mRNA and protein expression (HDAC8) | cell viability (cytotoxic effect, fold) [1] | IC50 (RKO cells) | IC50 (HT29 cells) |
| --- | --- | --- | --- | --- | --- | --- |
| COc1ccc(COc2c(/C=C/C(=O)NO)ccc(OC)c2CC=C(C)C)cc1 [BMX, (E)-2-(4-Methoxybenzyloxy)-3-prenyl-4-methoxy-N-hydroxycinamide] | only slightly reduced these levels | concentration-dependent increase in the expression of P62 and LC3-II | inhibition of HDAC8 mRNA and protein expression | 0.88 × and 0.77 × and 0.63 × | – | – |
| Cn1nnc2c(C(N)=O)ncn2c1=O [TMZ, Temozolomide, reference compound] | – | – | – | – | 244 ± 29.4 µM | 359 ± 50.4 µM |
